Measurements as given in US7141564B2, “Nitrogen-containing bicyclic heterocycles for use as antibacterials” (priority 2001, dated 2006).
Where a name gives a salt, the structure may show the parent alone.

Test system: not listed separately
Test: MIC of test compounds against various organisms
Assay type: cell-based
Details: versus all these organisms (panel of 10 strains); read-out: MIC

| SMILES | MIC [µg/mL] |
| --- | --- |
| COc1ccc2nccc(NC(=O)[C@H]3CC[C@H](NCc4cc5cccc(O)c5c(=O)[nH]4)CC3)c2n1 [Example 17, Trans-4-[(8-Hydroxy-1-oxo-1,2-dihydro-isoquinolin-3-ylmethyl)-amino]-cyclohexanecarboxylic acid (6-methoxy-[1,5]naphthyridin-4-yl)-amide dihydrochloride salt] | ≤ 16 |
| COc1ccc2nccc(NC(=O)[C@H]3CC[C@H](NCc4ccc5c(c4)NCCO5)CC3)c2n1 [Example 15, Trans-4-[(3,4-Dihydro-2H-benzo[1,4]oxazin-6-ylmethyl)-amino]-cyclohexanecarboxylic acid (6-methoxy-[1,5]naphthyridin-4-yl)-amide oxalate salt] | ≤ 16 |
| COc1cc(F)c2nccc(NC(=O)[C@H]3CC[C@H](NCc4ccc5c(c4)OCCO5)CC3)c2c1 [Example 10, Trans-4-[(2,3-Dihydro-benzo[1,4]dioxin-6-ylmethyl)-amino]-cyclohexanecarboxylic acid (8-fluoro-6-methoxy-quinolin-4-yl)-amide Fumarate Salt] | ≤ 16 |
| COc1ccc2nccc(NC(=O)[C@H]3CC[C@H](NCc4cnc5c(c4)NC(=O)CS5)CC3)c2c1 [Example 14, Trans-4-[(2-Oxo-2,3-dihydro-1H-pyrido[2,3-b][1,4]thiazin-7-ylmethyl)-amino]-cyclohexanecarboxylic acid (6-methoxy-quinolin-4-yl)-amide oxalate salt] | ≤ 16 |
| COc1ccc2nccc(NC(=O)[C@H]3CC[C@H](NCc4ccc5c(c4)OCCO5)CC3)c2n1 [Example 5, Trans-4-[(2,3-Dihydro-benzo[1,4]dioxin-6-ylmethyl)-amino]-cyclohexanecarboxylic acid (6-methoxy-[1,5]naphthyridin-4-yl)-amide fumarate salt] | ≤ 4 |
| COc1cc(F)c2nccc(NC(=O)[C@H]3CC[C@H](NCc4ccc5c(c4)NC(=O)CS5)CC3)c2c1 [Example 30, Trans-4-[(3-Oxo-3,4-dihydro-2-H-benzo[1,4]thiazin-6-ylmethyl)amino]-cyclohexanecarboxylic acid (8-fluoro-6-methoxy-quinolin-4-yl)-amide oxalate] | ≤ 4 |
| COc1ccc2nccc(NC(=O)[C@]3(O)CC[C@@H](NCc4ccc5c(c4)NC(=O)CS5)CC3)c2n1 [Example 300, 1-Hydroxy-t-4-[(3-oxo-3,4-dihydro-2H-benzo[1,4]thiazin-6-ylmethyl)-amino]-r-cyclohexanecarboxylic Acid (6-methoxy-[1,5]naphthyridin-4-yl)-amide Dihydrochloride] | ≤ 4 |
| COc1ccc2nccc(NC(=O)[C@H]3CC[C@H](NCc4cc(N)c5c(c4)NC(=O)CO5)CC3)c2n1 [Example 36, Trans-4-[(8-Amino-3-oxo-3,4-dihydro-2H-benzo[1,4]oxazin-6-ylmethyl)-amino]-cyclohexanecarboxylic acid (6-methoxy)-[1,5]naphthyridin-4-yl)-amide Oxalate] | ≤ 64 |
| COc1ccc2nccc(NC(=O)[C@H]3CC[C@H](NCc4cc5c(cc4N)OCO5)CC3)c2n1 [Example 24, Trans-4-[(6-Amino-benzo[1,3]dioxol-5-ylmethyl)-amino]-cyclohexanecarboxylic acid (6-methoxy-[1,5]naphthyridin-4-yl)-amide dioxalate salt] | ≤ 16 |
| COc1ccc2nccc(NC(=O)[C@H]3CC[C@H](NCc4cnc5scnc5c4)CC3)c2n1 [Example 16, Trans-4-[(Thiazolo[5,4-b]-pyridin-6-ylmethyl)-amino]-cyclohexanecarboxylic acid (6-methoxy-[1,5]naphthyridin-4-yl)-amide oxalate salt] | ≤ 16 |

Next, values leading:

| MIC [µg/mL] | SMILES |
| --- | --- |
| ≤ 4 | COc1ccc2nccc(NC(=O)[C@]3(O)CC[C@@H](NCc4ccc5c(n4)NC(=O)CS5)CC3)c2c1 [Example 391, 1-Hydroxy-t-4-[(3-oxo-3,4-dihydro-2H-pyrido[3,2-b][1,4]thiazin-6-ylmethyl)-amino-r-cyclohexanecarboxylic acid (6-methoxy-quinolin-4-yl)-amidedihydrochloride] |
| ≤ 4 | COc1ccc2nccc(NC(=O)[C@H]3CC[C@H](NCc4ccc5c(c4)NC(=O)CO5)CC3)c2n1 [Example 8, Trans-4-[(3-Oxo-3,4-dihydro-2H-benzo[1,4]oxazin-6-ylmethyl)-amino]-cyclohexanecarboxylic acid (6-methoxy-[1,5]naphthyridin-4-yl)-amide fumarate salt] |
| ≤ 4 | COc1ccc2nccc(NC(=O)[C@H]3CC[C@H](NCc4cnc5c(c4)NC(=O)CS5)CC3)c2n1 [Example 13, Trans-4-[(2-Oxo-2,3-dihydro-1H-pyrido[2,3-b][1,4]thiazin-7-ylmethyl)-amino]-cyclohexanecarboxylic Acid (6-methoxy-[1,5]naphthyridin-4-yl)-amide oxalate salt] |
| ≤ 4 | COc1ccc2nccc(NC(=O)[C@H]3CC[C@H](NCc4cc5c(c([N+](=O)[O-])c4)OCC(=O)N5)CC3)c2n1 [Example 35, Trans-4-[(8-Nitro-3-oxo-3,4-dihydro-2H-benzo[1,4]oxazin-6-ylmethyl)-amino]-cyclohexanecarboxylic Acid (6-methoxy)-[1,5]naphthyridin-4-yl)-amide Oxalate] |
| ≤ 4 | COc1ccc2nccc(NC(=O)[C@]3(O)CC[C@@H](NCc4cnc5c(c4)NC(=O)CS5)CC3)c2n1 [Example 303, 1-Hydroxy-t-4-[(2-oxo-2,3-dihydro-1H-pyrido[2,3-b][1,4]thiazin-7-ylmethyl)-amino]-r-cyclohexanecarboxylic Acid (6-methoxy-[1,5]naphthyridin-4-yl)-amide Dihydrochloride] |
| ≤ 4 | COc1ccc2nccc(NC(=O)[C@H]3CC[C@H](NCc4cc5c(cc4F)OCC(=O)N5)CC3)c2n1 [Example 9] |
| ≤ 4 | COc1ccc2nccc(NC(=O)[C@H]3CC[C@H](NCc4ccc5snnc5c4)CC3)c2n1 [Example 6, Trans-4-[(Benzo[1,2,3]thiadiazol-5-ylmethyl)-amino]-cyclohexanecarboxylic acid (6-methoxy-[1,5]naphthyridin-4-yl)-amide fumarate salt] |
| ≤ 4 | COc1ccc2nccc(NC(=O)[C@H]3CC[C@H](NCc4cc5c(cn4)OCCO5)CC3)c2n1 [Example 19, Trans-4-[(2,3-Dihydro-[1,4]dioxino[2,3-c]pyridin-7-ylmethyl)-amino]-cyclohexanecarboxylic acid (6-methoxy-[1,5]naphthyridin-4-yl)-amide oxalate salt] |
| ≤ 4 | COc1ccc2nccc(NC(=O)[C@]3(O)CC[C@@H](NCc4nc5c(cc4Br)SCC(=O)N5)CC3)c2n1 [Example 304, 1-Hydroxy-t-4-[(7-bromo-3-oxo-3,4-dihydro-2H-pyrido[3,2-b][1,4]thiazin-6-ylmethyl)-amino]-r-cyclohexanecarboxylic Acid (6-methoxy-[1,5]naphthyridin-4-yl)-amide Dihydrochloride] |

Test system: S. aureus WCUH29, S. pneumoniae 1629, H. influenzae ATCC 51907, M. catarrhalis Ravisio
Test: MIC of further test compounds against an alternative selection of organisms
Assay type: cell-based
Details: versus all these organisms (alternative panel of 4 strains)
Protocol: The MIC […] of further test compounds against an alternative selection of organisms was determined: S. aureus WCUH29, S. pneumoniae 1629, H. influenzae ATCC 51907, M. catarrhalis Ravisio.

| MIC [µg/mL] | SMILES |
| --- | --- |
| ≤ 16 | COCCOc1ccc2nccc(NC(=O)[C@]3(O)CC[C@@H](NCc4ccc5c(n4)NC(=O)CS5)CC3)c2n1 [Example 313, 1-Hydroxy-t-4-[(3-oxo-3,4-dihydro-2H-pyrido[3,2-b][1,4]thiazin-6-ylmethyl)-amino]-r-cyclohexanecarboxylic acid [6-(2-methoxy-ethoxy)-[1,5]naphthyridin-4-yl]-amide dihydrochloride] |
| ≤ 16 | CCc1cc2c(nc1CN[C@H]1CC[C@](O)(C(=O)Nc3ccnc4ccc(OC)nc34)CC1)NC(=O)CS2 [Example 311, 1-Hydroxy-t-4-[(7-ethyl-3-oxo-3,4-dihydro-2H-pyrido[3,2-b][1,4]thiazin-6-ylmethyl)-amino]-r-cyclohexanecarboxylic acid (6-methoxy-[1,5]naphthyridin-4-yl)-amide dihydrochloride] |
